# Source: ChEMBL document CHEMBL3085716, “Hytramycins V and I, anti-Mycobacterium tuberculosis hexapeptides from a Streptomyces hygroscopicus strain” (J Nat Prod, 2013)
# Columns and labels:
# Escherichia coli [1] = experiment: Antibacterial activity against Escherichia coli ATCC 25922 at 10 ug/ml after 16 hrs; format: functional; settings: ATCC 25922, 16 h
# Acinetobacter baumannii [2] = experiment: Antibacterial activity against Acinetobacter baumannii ATCC BAA-747 at 10 ug/ml after 16 hrs; format: functional; settings: ATCC BAA-747, 16 h
# [3] = test system: Mycobacterium tuberculosis; experiment: Antimycobacterial activity against Mycobacterium tuberculosis clinical isolate X003899 under normoxic condition after 7 days by MABA assay; format: functional; settings: clinical isolate X003899, 168 h
# Staphylococcus aureus [4] = experiment: Antibacterial activity against Staphylococcus aureus ATCC 29213 after 16 hrs; format: functional; settings: ATCC 29213, 16 h
# [5] = test system: Mycobacterium tuberculosis; experiment: Antimycobacterial activity against Mycobacterium tuberculosis clinical isolate X005319 under normoxic condition after 7 days by MABA assay; format: functional; settings: clinical isolate X005319, 168 h
# [6] = test system: Mycobacterium tuberculosis; experiment: Antimycobacterial activity against Mycobacterium tuberculosis clinical isolate X001354 under normoxic condition after 7 days by MABA assay; format: functional; settings: clinical isolate X001354, 168 h
# Enterococcus faecalis [7] = experiment: Antibacterial activity against Enterococcus faecalis ATCC 29212 after 16 hrs; format: functional; settings: ATCC 29212, 16 h
# Acinetobacter baumannii [8] = experiment: Antibacterial activity against Acinetobacter baumannii ATCC BAA-747 after 16 hrs; format: functional; settings: ATCC BAA-747, 16 h
# Candida albicans [9] = experiment: Antifungal activity against Candida albicans ATCC 10231 at 10 ug/ml after 48 hrs; format: functional; settings: ATCC 10231, 48 h
# [10] = test system: Mycobacterium tuberculosis; experiment: Antimycobacterial activity against Mycobacterium tuberculosis clinical isolate X004244 under normoxic condition after 7 days by MABA assay; format: functional; settings: clinical isolate X004244, 168 h
# Staphylococcus aureus [11] = experiment: Antibacterial activity against Staphylococcus aureus ATCC 29213 at 10 ug/ml after 16 hrs; format: functional; settings: ATCC 29213, 16 h
# [12] = test system: Mycolicibacterium smegmatis; experiment: Antimycobacterial activity against Mycobacterium smegmatis ATCC 700084 under normoxic condition after 72 hrs by MABA assay; format: functional; settings: ATCC 700084, 72 h
# Pseudomonas aeruginosa [13] = experiment: Antibacterial activity against Pseudomonas aeruginosa ATCC 27853 after 16 hrs; format: functional; settings: ATCC 27853, 16 h
# Candida albicans [14] = experiment: Antifungal activity against Candida albicans ATCC 10231 after 48 hrs; format: functional; settings: ATCC 10231, 48 h
# [15] = test system: Mycobacterium tuberculosis; experiment: Antimycobacterial activity against Mycobacterium tuberculosis H37Rv under normoxic condition after 7 days by MABA assay; format: functional
# [16] = test system: Mycobacterium tuberculosis; experiment: Antimycobacterial activity against Mycobacterium tuberculosis H37Rv under normoxic condition after 7 days by MABA assay in presence of 10% fetal bovine serum; format: functional; settings: 168 h
# [17] = test system: Mycobacterium tuberculosis; experiment: Ratio of MIC for Mycobacterium tuberculosis H37Rv under normoxic condition in presence of 4% bovine serum albumin to MIC for Mycobacterium tuberculosis H37Rv under normoxic condition in absence of 4% bovine serum albumin by MABA assay; format: functional
# [18] = test system: Mycobacterium tuberculosis; experiment: Antimycobacterial activity against Mycobacterium tuberculosis clinical isolate X005282 under normoxic condition after 7 days by MABA assay; format: functional; settings: clinical isolate X005282, 168 h
# Streptococcus pneumoniae = experiment: Antibacterial activity against Streptococcus pneumoniae ATCC 49619 after 20 hrs; format: functional; settings: ATCC 49619, 20 h
# [19] = test system: Mycobacterium tuberculosis; experiment: Antimycobacterial activity against Mycobacterium tuberculosis H37Rv under normoxic condition after 7 days by MABA assay in presence of 4% bovine serum albumin; format: functional; settings: 168 h
# [20] = test system: Mycobacterium tuberculosis; experiment: Antimycobacterial activity against Mycobacterium tuberculosis clinical isolate X004439 under normoxic condition after 7 days by MABA assay; format: functional; settings: clinical isolate X004439, 168 h
# Vero = experiment: Cytotoxicity against african green monkey Vero cells; format: cell-based; settings: Chlorocebus sabaeus
# Escherichia coli [21] = experiment: Antibacterial activity against Escherichia coli ATCC 25922 after 16 hrs; format: functional; settings: ATCC 25922, 16 h
# Pseudomonas aeruginosa [22] = experiment: Antibacterial activity against Pseudomonas aeruginosa ATCC 27853 at 10 ug/ml after 16 hrs; format: functional; settings: ATCC 27853, 16 h
# [23] = test system: Mycobacterium tuberculosis; experiment: Ratio of MIC for Mycobacterium tuberculosis H37Rv under normoxic condition in presence of 10% fetal bovine serum to MIC for Mycobacterium tuberculosis H37Rv under normoxic condition in absence of 10% fetal bovine serum by MABA assay; format: functional
# [24] = test system: Streptomyces lavendofoliae; experiment: Antibacterial activity against Streptomyces lavendofoliae after 16 hrs; format: functional
# Enterococcus faecalis [25] = experiment: Antibacterial activity against Enterococcus faecalis ATCC 29212 at 10 ug/ml after 16 hrs; format: functional; settings: ATCC 29212, 16 h
# [26] = Mycobacterium tuberculosis, H37Rv, 168 h
structure (smiles),measurement,setting,value
CC(C)C[C@@H]1NC(=O)[C@H]2CCCNN2C(=O)[C@H](C)N(C)C(=O)[C@H]2CCCNN2C(=O)[C@@H]2CCCNN2C(=O)[C@@H](C(C)C)NC1=O,inhibition at 10 µg/mL,Escherichia coli [1],17%
same,inhibition at 10 µg/mL,Acinetobacter baumannii [2],37%
same,MIC90,[3],22.9 µg/mL
same,MIC90,Staphylococcus aureus [4],> 10 µg/mL
same,MIC90,[5],19.2 µg/mL
same,MIC90,[6],9.7 µg/mL
same,MIC90,Enterococcus faecalis [7],8 µg/mL
same,MIC90,Acinetobacter baumannii [8],> 10 µg/mL
same,inhibition at 10 µg/mL,Candida albicans [9],17%
same,MIC90,[10],16.9 µg/mL
same,inhibition at 10 µg/mL,Staphylococcus aureus [11],86%
same,MIC90,[12],> 10 µg/mL
same,MIC90,Pseudomonas aeruginosa [13],> 10 µg/mL
same,MIC90,Candida albicans [14],> 10 µg/mL
same,MBC90,[15],>50 µg/mL
same,MIC90,[15]; [26],11.3 µg/mL
same,MIC90,[16],29.2 µg/mL
same,Ratio,[17],2
same,MIC90,[18],9.6 µg/mL
same,MIC90,Streptococcus pneumoniae,8.4 µg/mL
same,MIC90,[19],24.1 µg/mL
same,MIC90,[20],9.3 µg/mL
same,IC50,Vero,24.2 µg/mL
same,MIC90,Escherichia coli [21],> 10 µg/mL
same,inhibition at 10 µg/mL,Pseudomonas aeruginosa [22],7%
same,Ratio,[23],2
CC[C@H](C)[C@H]1NC(=O)[C@H](CC(C)C)NC(=O)[C@H]2CCCNN2C(=O)[C@H](C)N(C)C(=O)[C@H]2CCCNN2C(=O)[C@@H]2CCCNN2C1=O,inhibition at 10 µg/mL,Escherichia coli [1],2%
same,inhibition at 10 µg/mL,Acinetobacter baumannii [2],77%
same,MIC90,[3],4.8 µg/mL
same,MIC90,Staphylococcus aureus [4],4.5 µg/mL
same,MIC90,[5],4.8 µg/mL
same,MIC90,[6],4.7 µg/mL
same,MIC90,Enterococcus faecalis [7],3.5 µg/mL
same,MIC90,Acinetobacter baumannii [8],> 10 µg/mL
same,inhibition at 10 µg/mL,Candida albicans [9],0%
same,MIC90,[10],4.7 µg/mL
same,MIC90,[12],> 10 µg/mL
same,MIC90,Pseudomonas aeruginosa [13],> 10 µg/mL
same,MIC90,Candida albicans [14],> 10 µg/mL
same,MBC90,[15],44.2 µg/mL
same,MIC90,[15]; [26],6 µg/mL
same,MIC90,[16],9.4 µg/mL
same,Ratio,[17],2
same,MIC90,[18],4.7 µg/mL
same,MIC90,Streptococcus pneumoniae,2.4 µg/mL
same,MIC90,[19],11.9 µg/mL
same,MIC90,[20],4.4 µg/mL
same,IC50,Vero,7.7 µg/mL
same,MIC90,Escherichia coli [21],> 10 µg/mL
same,inhibition at 10 µg/mL,Pseudomonas aeruginosa [22],10%
same,Ratio,[23],2
CC(C)[C@H]1NC(=O)[C@@H]2C[C@@]3(O)c4ccc(Cl)cc4N[C@H]3N2C(=O)[C@H]2CCCNN2C(=O)[C@H](C)N(C)C(=O)[C@H]2CCCNN2C(=O)[C@@H]2CCCNN2C1=O,MIC,[15]; [26],18.6 µg/mL
C=C1NC(CC(C)C)C(=O)N[C@H](C(C)C)C(=O)N2NCCCC2C(=O)CC(CC(C)C)C(=O)N2NCCCC2C(=O)OC(C)[C@H]1NC(=O)[C@@H](NC=O)[C@@H](C)CC (some centres undefined),MIC,[24],3.12 µg/mL
NCC[C@H](O)C(=O)N[C@@H]1C[C@H](N)[C@@H](O[C@H]2O[C@H](CN)[C@@H](O)[C@H](O)[C@H]2O)[C@H](O)[C@H]1O[C@H]1O[C@H](CO)[C@@H](O)[C@H](N)[C@H]1O [AMIKACIN],MIC90,Pseudomonas aeruginosa [13],1.8 µg/mL
C[C@@H]1[C@H](O)[C@@H](C)/C=C/C=C/C=C/C=C/C=C/C=C/C=C/[C@H](O[C@@H]2O[C@H](C)[C@@H](O)[C@H](N)[C@@H]2O)C[C@@H]2O[C@](O)(C[C@@H](O)C[C@@H](O)[C@H](O)CC[C@@H](O)C[C@@H](O)CC(=O)O[C@H]1C)C[C@H](O)[C@H]2C(=O)O [AMPHOTERICIN B],MIC90,Candida albicans [14],0.4 µg/mL
CC1(C)S[C@@H]2[C@H](NC(=O)[C@H](N)c3ccccc3)C(=O)N2[C@H]1C(=O)O [AMPICILLIN],MIC90,Staphylococcus aureus [4],1.2 µg/mL
same,MIC90,Enterococcus faecalis [7],> 10 µg/mL
same,inhibition at 10 µg/mL,Enterococcus faecalis [25],66%
same,MIC90,Escherichia coli [21],8.9 µg/mL
O=C(O)c1cn(C2CC2)c2cc(N3CCNCC3)c(F)cc2c1=O [CIPROFLOXACIN],MIC90,Enterococcus faecalis [7],4.9 µg/mL
same,MIC90,Pseudomonas aeruginosa [13],0.2 µg/mL
CC(C)/N=c1\cc2n(-c3ccc(Cl)cc3)c3ccccc3nc-2cc1Nc1ccc(Cl)cc1 [CLOFAZIMINE],MIC90,[12],1.1 µg/mL
CN(C)[C@@H]1C(O)=C(C(N)=O)C(=O)[C@@]2(O)C(O)=C3C(=O)c4c(O)ccc(Cl)c4[C@@H](O)[C@H]3C[C@@H]12 [DEMECLOCYCLINE],MIC90,Acinetobacter baumannii [8],0.1 µg/mL
C[C@H]1c2cccc(O)c2C(=O)C2=C(O)[C@]3(O)C(=O)C(C(N)=O)=C(O)[C@@H](N(C)C)[C@@H]3[C@@H](O)[C@@H]21.O [DOXYCYCLINE],MIC90,Acinetobacter baumannii [8],0.1 µg/mL
